Measured values: PMC9319549, “Synthesis and Biological Evaluation of Imadazo[1,2-a]pyrazines as Anticancer and Antiviral Agents through Inhibition of CDK9 and Human Coronavirus” (Pharmaceuticals, 2022)
Where two headings read alike, the source gives them in different places.

What was measured:
CDK9 [1] = target: T1, CDK9 (Homo sapiens, UniProt P50750); assay: biochemical; conditions: biochemical assay; mean ± standard deviation of three individual experiments; read-out: CDK9 Inhibitory Activity IC50
T1 construct: purchased BPS Biosciences (San Diego, CA, USA) 79628
T1 sequence (P50750 whole entry): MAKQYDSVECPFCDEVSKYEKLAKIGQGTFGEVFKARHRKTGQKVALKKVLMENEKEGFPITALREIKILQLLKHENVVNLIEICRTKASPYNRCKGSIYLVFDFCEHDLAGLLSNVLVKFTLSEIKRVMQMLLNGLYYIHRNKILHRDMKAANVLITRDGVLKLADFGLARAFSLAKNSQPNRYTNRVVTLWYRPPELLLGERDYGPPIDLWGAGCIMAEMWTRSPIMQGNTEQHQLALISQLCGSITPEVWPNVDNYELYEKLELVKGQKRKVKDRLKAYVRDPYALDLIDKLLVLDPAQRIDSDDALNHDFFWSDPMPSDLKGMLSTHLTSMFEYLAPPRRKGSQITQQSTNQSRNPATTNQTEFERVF
T1 sequence (O60563 whole entry partner): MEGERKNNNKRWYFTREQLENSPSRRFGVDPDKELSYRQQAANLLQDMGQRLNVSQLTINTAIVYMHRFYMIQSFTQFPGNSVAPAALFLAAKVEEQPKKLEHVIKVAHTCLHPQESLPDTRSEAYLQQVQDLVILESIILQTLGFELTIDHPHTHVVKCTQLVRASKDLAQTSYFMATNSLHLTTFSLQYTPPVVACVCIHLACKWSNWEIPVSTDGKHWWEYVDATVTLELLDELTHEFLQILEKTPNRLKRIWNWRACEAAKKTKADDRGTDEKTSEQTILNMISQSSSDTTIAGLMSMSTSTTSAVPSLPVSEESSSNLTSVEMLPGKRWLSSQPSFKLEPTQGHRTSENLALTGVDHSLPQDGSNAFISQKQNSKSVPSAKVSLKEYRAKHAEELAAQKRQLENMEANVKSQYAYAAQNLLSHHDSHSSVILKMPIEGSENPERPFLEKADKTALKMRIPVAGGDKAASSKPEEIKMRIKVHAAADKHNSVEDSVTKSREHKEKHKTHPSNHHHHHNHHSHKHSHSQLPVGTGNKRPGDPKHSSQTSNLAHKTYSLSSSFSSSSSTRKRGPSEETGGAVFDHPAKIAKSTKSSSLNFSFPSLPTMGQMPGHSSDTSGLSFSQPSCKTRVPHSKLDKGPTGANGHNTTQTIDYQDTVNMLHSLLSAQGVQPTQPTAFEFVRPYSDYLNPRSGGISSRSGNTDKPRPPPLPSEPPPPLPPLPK
Procedure: In this study, all the newly synthesized compounds were assessed against CDK9 in a biochemical assay, and dinaciclib was used as a standard compound.
The luminescence was measured using a microplate reader. The results were analyzed using GraphPad Prism 5.0, and the kinase inhibitory activity was expressed as IC50 for three individual experiments. In the assay, dinaciclib was used as a positive control, and DMSO was used as negative control.

breast cancer (MCF7) = assay: MTT cytotoxicity assay, MCF7; format: cell-based; conditions: Homo sapiens, MCF7, 48 h, read-out: IC50 MCF7
Procedure: (§1) The in vitro cytotoxicity of our compounds was determined using MTT assay. […] The results were analyzed using GraphPad Prism 5.0, and cytotoxicity was expressed as IC50 for three individual experiments.

[2] = system: chronic myelogenous leukaemia; assay: cells; conditions: K652, 48 h, read-out: IC50 K652
Procedure: as §1

[3] = system: colorectal cancer (HCT116); assay: cells; conditions: Homo sapiens, HCT-116, 48 h, read-out: IC50 HCT116
Procedure: as §1

[4] = system: MCF7, HCT116 and K652 cell lines; assay: MTT cytotoxicity assay, average of three cell lines; format: cell-based; conditions: read-out: average IC50 of three cell lines
Procedure: as §1

normal cells FHC = assay: cells; conditions: for average selectivity over three cancer cells: normal cells FHC vs MCF7, HCT116, K652; for IC50: read-out: FHC IC50
Procedure: as §1

human coronavirus 229E = assay: Cytopathic effect (CPE) inhibition assay, crystal violet method; format: cell-based; conditions: read-out: IC50 (229E)
Procedure: The anti-coronaviral activity of the new compounds was assessed using a cytopathic effect (CPE) inhibition assay against human coronavirus 229E. Ribavirin (well-established antiviral agent) was used as standard in this assay.

[5] = Cytotoxicity on target cells in the antiviral assay (crystal violet)
Procedure: The results were analyzed using GraphPad Prism 5.0, and cytotoxicity was expressed as IC50 for three individual experiments. In the assay, ribavirin was used as a positive control, and DMSO was used as a negative control.

CDK9 [6] = target: T1, CDK9; conditions: identified by virtual screening from natural resources; cited from earlier work

Compound | IC50 (CDK9 [1]) [µM] | IC50 (breast cancer (MCF7)) [µM] | IC50 [2] [µM] | IC50 [3] [µM] | IC50 [4] [µM] | melting point [°C] | average selectivity over three cancer cells (normal cells FHC) [fold] | IC50 (normal cells FHC) [µM] | IC50 (human coronavirus 229E) [µM] | CC50 [5] [µM] | IC50 (CDK9 [6]) [µM]
COc1ccc(Nc2c(-c3ccncc3)nc3cnccn23)cc1 [Compound 3d, N-(4-Methoxyphenyl)-2-(pyridin-4-yl)imidazo[1,2-a]pyrazin-3-amine] | 0.8 ± 0.014 | 118 ± 1.17 | 46.6 ± 0.48 | 27.9 ± 1.88 | – | – | – | – | – | – | –
COc1ccc(Nc2c(-c3ccc(O)c(O)c3)nc3cnccn23)cc1 [Compound 2d, 4-(3-((4-Methoxyphenyl)amino)imidazo[1,2-a]pyrazin-2-yl)benzene-1,2-diol] | 2.03 ± 0.04 | 80.4 ± 1.31 | 136 ± 2.59 | 162 ± 2.41 | 126 | 150 to 152 | – | – | – | – | –
CN[C@@H]1C[C@H]2O[C@@](C)([C@@H]1OC)n1c3ccccc3c3c4c(c5c6ccccc6n2c5c31)C(=O)NC4 [Staurosporine, reference compound] | – | 18.4 ± 0.4 | – | – | – | – | – | – | – | – | –
c1ccc(CNc2c(-c3ccncc3)nc3cnccn23)cc1 [Compound 3c, N-Benzyl-2-(pyridin-4-yl)imidazo[1,2-a]pyrazin-3-amine] | 0.16 ± 0.003 | 8.59 ± 0.12 | 4.45 ± 0.06 | 7.96 ± 0.12 | 6.66 | – | 15 | 97.2 ± 1.58 | 379 | 472 | –
COc1ccc(Nc2c(-c3ccsc3)nc3cnccn23)cc1 [Compound 4d, N-(4-Methoxyphenyl)-2-(thiophen-3-yl)imidazo[1,2-a]pyrazin-3-amine] | 3.16 ± 0.058 | 141 ± 2.13 | 87.2 ± 1.53 | 115 ± 1.93 | – | – | – | – | – | – | –
c1ccc(CNc2c(-c3ccccc3)nc3cnccn23)cc1 [Compound 1c, N-Benzyl-2-phenylimidazo[1,2-a]pyrazin-3-amine] | 1.01 ± 0.017 | 99 ± 1.39 | 88.6 ± 8.25 | 59.3 ± 5.05 | – | – | – | – | – | – | –
CC(C)(C)Nc1c(-c2ccncc2)nc2cnccn12 [Compound 3a, N-(Tert-butyl)-2-(pyridin-4-yl)imidazo[1,2-a]pyrazin-3-amine] | 0.26 ± 0.004 | 4.3 ± 0.5 | 46 ± 0.67 | 2.69 ± 0.04 | 17.7 | – | 41 | 196 ± 2.79 | 394 | 940 | –
c1cn2c(NC3CCCCC3)c(-c3ccsc3)nc2cn1 [Compound 4b, N-Cyclohexyl-2-(thiophen-3-yl)imidazo[1,2-a]pyrazin-3-amine] | 1.32 ± 0.006 | 181 ± 2.63 | 46.6 ± 0.76 | 27.9 ± 0.43 | – | 170 to 172 | – | – | – | – | –
c1ccc(CNc2c(-c3ccsc3)nc3cnccn23)cc1 [Compound 4c, N-Benzyl-2-(thiophen-3-yl)imidazo[1,2-a]pyrazin-3-amine] | 0.71 ± 0.012 | 55.8 ± 0.8 | 69.2 ± 3.89 | 80.6 ± 1.26 | – | – | – | – | – | – | –
CC(C)(C)Nc1c(-c2ccc(O)c(O)c2)nc2cnccn12 [Compound 2a, 4-(3-(Tert-butylamino)imidazo[1,2-a]pyrazin-2-yl)benzene-1,2-diol] | 1.14 ± 0.019 | 76.8 ± 1.08 | 22.8 ± 0.37 | 35.9 ± 0.56 | – | 270 to 272 | – | – | – | – | –
Oc1ccc(-c2nc3cnccn3c2NC2CCCCC2)cc1O [Compound 2b, 4-(3-(Cyclohexylamino)imidazo[1,2-a]pyrazin-2-yl)benzene-1,2-diol] | 0.89 ± 0.016 | 119 ± 1.82 | 54.2 ± 0.96 | 105 ± 1.78 | – | – | – | – | – | – | –
CC(C)(C)Nc1c(-c2ccccc2)nc2cnccn12 [Compound 1a, N-(Tert-butyl)-2-phenylimidazo[1,2-a]pyrazin-3-amine] | 1.67 ± 0.025 | 405 ± 5.05 | 310 ± 4.49 | 597 ± 8.25 | 437 | – | – | – | – | – | –
COc1ccc(Nc2c(-c3ccccc3)nc3cnccn23)cc1 [Compound 1d, N-(4-Methoxyphenyl)-2-phenylimidazo[1,2-a]pyrazin-3-amine] | 1.04 ± 0.019 | 244 ± 3.62 | 77.4 ± 1.34 | 75.2 ± 1.24 | – | – | – | – | – | – | –
NC(=O)c1ncn([C@@H]2O[C@H](CO)[C@@H](O)[C@H]2O)n1 [Ribavirin, reference compound] | – | – | – | – | – | – | – | – | 114 | 160 | –
CC(C)(C)Nc1c(-c2ccsc2)nc2cnccn12 [Compound 4a, N-(Tert-butyl)-2-(thiophen-3-yl)imidazo[1,2-a]pyrazin-3-amine] | 0.73 ± 0.011 | 25.4 ± 0.32 | 12.77 ± 0.06 | 61.31 ± 0.12 | – | – | 3.5 | 76.1 ± 1.11 | – | – | –
c1cc(-c2nc3cnccn3c2NC2CCCCC2)ccn1 [Compound 3b, N-Cyclohexyl-2-(pyridin-4-yl)imidazo[1,2-a]pyrazin-3-amine] | 0.41 ± 0.007 | 31.7 ± 0.44 | 67.8 ± 1.08 | 8.96 ± 0.14 | – | – | – | – | 57 | 407 | –
Oc1ccc(-c2nc3cnccn3c2NCc2cccs2)cc1O [Compound 10] | – | – | – | – | – | – | – | – | – | – | 5.12
c1ccc(-c2nc3cnccn3c2NC2CCCCC2)cc1 [Compound 1b, N-Cyclohexyl-2-phenylimidazo[1,2-a]pyrazin-3-amine] | 0.25 ± 0.004 | 3.01 ± 0.04 | 50.3 ± 0.8 | 1.43 ± 0.02 | 18.2 | – | 43 | 123 ± 19.1 | 146 | 299 | –
Oc1ccc(-c2nc3cnccn3c2NCc2ccccc2)cc1O [Compound 2c, 4-(3-(Benzylamino)imidazo[1,2-a]pyrazin-2-yl)benzene-1,2-diol] | 0.31 ± 0.006 | 39.7 ± 0.62 | 88.6 ± 1.09 | 59.9 ± 1.04 | – | – | – | – | – | – | –
